From PubChem BioAssay (NCI)
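Interpolation was linear, between the two tested concentrations surrounding the appropriate level; five concentrations were tested over 48 hours in 96-well plates. Abbreviation: GI50, concentration required for 50% inhibition of growth. TGI: concentration producing complete growth inhibition.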

Legend:
Test in all cases: DTP human tumour cell line panel, 48 h
COLO 205 colon = test system: COLO 205 colon
DU-145 prostate = test system: DU-145 prostate
HCC-2998 colon = test system: HCC-2998 colon
HCT-116 colon = test system: HCT-116 colon
M14 melanoma = test system: M14 melanoma
NCI-H23 lung = test system: NCI-H23 lung
NCI/ADR-RES ovarian = test system: NCI/ADR-RES ovarian
SK-MEL-5 melanoma = test system: SK-MEL-5 melanoma
UO-31 renal = test system: UO-31 renal
LOX IMVI melanoma = test system: LOX IMVI melanoma

SMILES	TGI (COLO 205 colon) [µM]	TGI (DU-145 prostate) [µM]	TGI (HCC-2998 colon) [µM]	TGI (HCT-116 colon) [µM]	TGI (M14 melanoma) [µM]	TGI (NCI-H23 lung) [µM]	TGI (NCI/ADR-RES ovarian) [µM]	TGI (SK-MEL-5 melanoma) [µM]	TGI (UO-31 renal) [µM]	TGI (LOX IMVI melanoma) [µM]	GI50 (COLO 205 colon) [µM]	GI50 (DU-145 prostate) [µM]	GI50 (HCC-2998 colon) [µM]	GI50 (HCT-116 colon) [µM]	GI50 (LOX IMVI melanoma) [µM]	GI50 (M14 melanoma) [µM]	GI50 (NCI-H23 lung) [µM]	GI50 (NCI/ADR-RES ovarian) [µM]	GI50 (SK-MEL-5 melanoma) [µM]	GI50 (UO-31 renal) [µM]
CO/C=C(/C(=O)OC)c1ccccc1[C@@H]1CC1c1cccc(F)c1 (stereo partly drawn)	30.3	> 100	94.8	77.3	81.6	> 100	91.8	24.8	> 100	–	–	–	–	–	–	–	–	–	–	–
Cc1nc2c(n1C)C(=O)c1nc(CBr)[nH]c(=O)c1C2=O	> 100	–	–	> 100	> 100	> 100	–	39	> 100	> 100	–	–	–	–	–	–	–	–	–	–
Cc1cccc2cc3c(ccc4ccccc43)c[n+]12	31.6	> 100	42.7	> 100	–	58	> 100	22.1	> 100	> 100	–	–	–	–	–	–	–	–	–	–
N#Cc1c(NC(=S)Nc2ccc(Cl)cc2)sc2c1CCCC2	> 100	> 100	> 100	> 100	–	> 100	> 100	> 100	> 100	> 100	–	–	–	–	–	–	–	–	–	–
COc1ccc2c(c1)CCN=C2Cc1cc(OC)c(OC)cc1CCCl	> 100	> 100	> 100	> 100	> 100	> 100	> 100	58.9	> 100	> 100	–	–	–	–	–	–	–	–	–	–
CC(=O)Oc1c(C)c2c(O)c3c1C1=C(OCOC1=C(C)C3=O)/C(C)=C\C(C)(O)C(O)C(C)C(O)C1C(=O)OC(C(C)C1O)C(C)(O)/C=C/C=C(C)C(=O)N2 (stereo not drawn)	> 100	> 100	> 100	> 100	> 100	> 100	> 100	> 100	46.5	> 100	–	–	–	–	–	–	–	–	–	–
CN(C)c1nc(N(C)C)nc(N(C)CN(C)c2ccc(Cl)cc2)n1	–	–	–	> 100	–	> 100	–	> 100	> 100	> 100	–	–	–	–	–	–	–	–	–	–
O=C(C[C@H](NC(=O)OCc1ccccc1)C(=O)NC1Cc2ccccc2OC1=O)OCc1ccccc1 (stereo partly drawn)	> 100	> 100	66.5	76.3	> 100	> 100	> 100	> 100	> 100	–	–	–	–	–	–	–	–	–	–	–
CCOC(=O)C[C@@H]1C2(C=C[C@@]13CO3)OCC(C)(C)CO2	> 100	> 100	> 100	> 100	> 100	> 100	> 100	> 100	> 100	> 100	–	–	–	–	–	–	–	–	–	–
CN(c1cc2ncc(=O)[nH]c2cc1NC(N)=NCc1ccc(Cl)cc1)C1CCCCC1	2.55	14.3	5.29	12.3	14.9	15.9	50	15.3	15.8	5.88	1.11	7.56	1.73	5.44	1.75	7.36	8.25	23.1	8.18	8.21
CC(C)(C)OC(=O)NCC(=O)NC1c2ccsc2/C(=N/O)[C@H]1O (stereo partly drawn)	> 100	> 100	> 100	> 100	> 100	> 100	> 100	> 100	> 100	> 100	–	–	–	–	–	–	–	–	–	–
CCN(CC)CCCC(C)Nc1ccnc2cc3ccccc3cc12 (stereo not drawn)	11.7	> 100	–	> 100	> 100	96.7	> 100	37.1	53.9	> 100	–	–	–	–	–	–	–	–	–	–
CCN1C=C/C(=C\C=C/c2cc[n+](CC)c3ccccc23)c2ccccc21	17	26.3	19	13.4	16.9	11.7	> 100	21.2	35.6	–	–	–	–	–	–	–	–	–	–	–
CC(C)CCC[C@@H](C)[C@H]1CC[C@H]2[C@@H]3CC[C@H]4C[C@H](N)CC[C@]4(C)[C@H]3CC[C@]12C	56.3	33.9	64	> 100	38.5	> 100	95.3	54.3	30.3	83	–	–	–	–	–	–	–	–	–	–
CCCCCCCCCCCCCCCc1ccc(OCC(O)CO)cc1 (stereo not drawn)	59.3	–	49.9	31.3	33.4	35.2	–	> 100	> 100	32.1	–	–	–	–	–	–	–	–	–	–
COc1ccc(C2CC(c3cccc(Nc4ccncc4)c3)=NN2c2ccc(Cl)cc2)cc1 (stereo not drawn)	3.76	3.17	3.22	3.36	3.24	3.43	3.3	3.18	2.51	3.03	1.78	1.74	1.74	1.65	1.66	1.61	1.81	1.73	1.77	1.2
O=c1cc(-c2ccc(O)cc2)n(C2CC2)c2ccccc12	15.1	21.5	–	13.1	20.7	26.6	38.8	18.5	21.1	16.7	–	–	–	–	–	–	–	–	–	–
c1ccc(C2CC(c3cccc(Nc4ccncc4)c3)=NN2c2ccccc2)cc1 (stereo not drawn)	3.86	4.02	2.96	3.25	3.39	3.35	3.54	3.22	2.8	3.05	1.9	1.95	1.58	1.66	1.66	1.69	1.73	1.74	1.77	1.48
O=Cc1cc([N+](=O)[O-])no1	> 100	> 100	> 100	33.7	35.6	> 100	> 100	36.6	> 100	> 100	–	–	–	–	–	–	–	–	–	–
